Article PMC4337798 (Biochimica et biophysica acta, 2010)

Assays:
[1] = biological target: T1, gastric H,K-ATPase (HKα1) (Mus musculus, UniProt Q64436); assay: K-ATPase activity dose response in gastric membrane vesicles; type: cell-based; details: read-out: % inhibition at 100 μM
[2] = biological target: T1, gastric H,K-ATPase (HKα1); assay: as above; type: cell-based

T1 sequence (Q64436 whole entry): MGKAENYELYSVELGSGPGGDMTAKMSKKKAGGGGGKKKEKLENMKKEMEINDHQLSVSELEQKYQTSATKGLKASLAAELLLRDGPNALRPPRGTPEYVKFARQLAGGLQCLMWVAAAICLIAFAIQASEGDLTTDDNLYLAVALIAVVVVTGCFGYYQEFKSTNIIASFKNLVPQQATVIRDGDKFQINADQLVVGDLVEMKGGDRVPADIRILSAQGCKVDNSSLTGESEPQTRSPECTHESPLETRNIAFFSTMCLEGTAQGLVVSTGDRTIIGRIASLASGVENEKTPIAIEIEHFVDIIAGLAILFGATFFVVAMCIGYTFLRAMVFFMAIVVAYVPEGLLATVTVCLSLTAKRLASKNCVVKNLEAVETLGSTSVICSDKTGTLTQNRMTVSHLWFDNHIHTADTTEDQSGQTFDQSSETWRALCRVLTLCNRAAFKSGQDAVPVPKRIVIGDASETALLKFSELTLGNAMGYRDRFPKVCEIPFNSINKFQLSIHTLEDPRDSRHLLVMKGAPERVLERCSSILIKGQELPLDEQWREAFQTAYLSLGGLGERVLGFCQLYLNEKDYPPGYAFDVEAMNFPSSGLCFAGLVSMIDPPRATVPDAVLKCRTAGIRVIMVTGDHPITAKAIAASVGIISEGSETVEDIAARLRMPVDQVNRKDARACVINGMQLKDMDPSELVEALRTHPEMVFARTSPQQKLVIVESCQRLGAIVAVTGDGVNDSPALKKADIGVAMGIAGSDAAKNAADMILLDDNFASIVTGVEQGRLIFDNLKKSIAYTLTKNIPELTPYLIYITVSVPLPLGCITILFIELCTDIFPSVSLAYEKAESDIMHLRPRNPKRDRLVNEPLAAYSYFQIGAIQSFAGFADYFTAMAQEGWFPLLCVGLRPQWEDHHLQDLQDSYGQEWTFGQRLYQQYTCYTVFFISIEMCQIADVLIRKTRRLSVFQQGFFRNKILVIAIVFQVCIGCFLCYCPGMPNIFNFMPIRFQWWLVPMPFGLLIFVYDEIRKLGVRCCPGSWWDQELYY
T1 sequence (P50992 whole entry partner): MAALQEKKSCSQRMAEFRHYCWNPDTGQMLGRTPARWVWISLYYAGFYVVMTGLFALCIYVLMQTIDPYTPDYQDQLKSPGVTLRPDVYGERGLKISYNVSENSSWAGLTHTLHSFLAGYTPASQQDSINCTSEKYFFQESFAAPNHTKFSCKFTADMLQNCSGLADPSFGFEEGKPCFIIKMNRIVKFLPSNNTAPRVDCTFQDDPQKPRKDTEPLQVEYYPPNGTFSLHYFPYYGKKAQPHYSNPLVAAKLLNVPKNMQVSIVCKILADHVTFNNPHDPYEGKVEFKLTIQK

N=C(N)NC(=O)c1nc(Cl)c(N)nc1N [amiloride]
inhibition at 100 µM [1]: ~65%

NC(=NCc1ccccc1)NC(=O)c1nc(Cl)c(N)nc1N [benzamil]
K-ATPase activity dose response in gastric membrane vesicles [2]: Amiloride derivatives benzamil and EIPA had similar inhibitory effects on the gastric K-ATPase activity

CCN(c1nc(N)c(C(=O)N=C(N)N)nc1Cl)C(C)C [EIPA, 5-N-ethyl-N-isopropylamiloride]
K-ATPase activity dose response in gastric membrane vesicles [2]: Amiloride derivatives benzamil and EIPA had similar inhibitory effects on the gastric K-ATPase activity
